Source: BindingDB's records for doi:10.1021/jm8003625 (Abbott Laboratories, 2008)

Legend:
[1] = molecular target: Histamine H3 receptor (Homo sapiens, UniProt Q9Y5N1); assay: Radioligand Binding Assay; conditions: pH 7.4; 25 °C
Procedure: (§1) Competition radioligand binding assays were performed with increasing concentrations of test compound in the presence of [3H]ligand. All binding reactions were terminated by filtration. Bound radiolabel was determined by liquid scintillation counting. For all of the radioligand competition binding assays, IC50 values and Hill slopes were determined by Hill transformation of the data and Ki values were determined by the Cheng-Prusoff equation.

[2] = molecular target: Histamine H3 receptor (Rattus norvegicus, UniProt Q9QYN8); assay: Radioligand Binding Assay
Histamine H3 receptor (Rattus norvegicus, UniProt Q9QYN8), sequence (Q9QYN8 whole entry): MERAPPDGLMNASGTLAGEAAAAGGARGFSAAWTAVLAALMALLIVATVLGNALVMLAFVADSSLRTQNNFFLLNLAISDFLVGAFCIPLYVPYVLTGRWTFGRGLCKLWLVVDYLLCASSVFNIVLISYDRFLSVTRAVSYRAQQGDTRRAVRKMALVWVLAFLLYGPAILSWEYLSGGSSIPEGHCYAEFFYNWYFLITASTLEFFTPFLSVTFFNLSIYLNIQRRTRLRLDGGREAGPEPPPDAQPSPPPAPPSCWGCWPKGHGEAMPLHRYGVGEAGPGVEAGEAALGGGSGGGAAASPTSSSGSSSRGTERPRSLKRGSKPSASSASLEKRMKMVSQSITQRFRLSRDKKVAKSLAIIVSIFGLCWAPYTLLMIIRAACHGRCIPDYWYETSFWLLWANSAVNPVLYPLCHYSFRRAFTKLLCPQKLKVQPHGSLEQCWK
Procedure: as §1

Histamine H3 receptor (Homo sapiens, UniProt Q9Y5N1), sequence (Q9Y5N1 whole entry): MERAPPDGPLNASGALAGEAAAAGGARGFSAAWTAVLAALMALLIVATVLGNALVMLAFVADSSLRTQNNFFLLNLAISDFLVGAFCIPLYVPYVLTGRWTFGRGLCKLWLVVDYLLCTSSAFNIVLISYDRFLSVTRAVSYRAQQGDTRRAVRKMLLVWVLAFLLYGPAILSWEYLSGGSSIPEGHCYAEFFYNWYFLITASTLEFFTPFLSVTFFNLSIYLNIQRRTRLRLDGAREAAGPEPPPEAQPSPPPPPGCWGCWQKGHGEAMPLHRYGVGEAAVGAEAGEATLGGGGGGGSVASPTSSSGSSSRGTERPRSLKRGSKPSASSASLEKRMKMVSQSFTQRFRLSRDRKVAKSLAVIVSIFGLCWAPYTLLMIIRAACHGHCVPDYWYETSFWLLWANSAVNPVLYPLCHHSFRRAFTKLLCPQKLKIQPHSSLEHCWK

CN[C@H]1CC[C@@]2(C)C(=CC[C@H]3[C@@H]4CC[C@@H]5[C@H](C)N(C)C[C@@]54CC[C@@H]32)C1 [(1R,2S,5S,6S,9R,12S,13R,16S)-N,6,7,13-tetramethyl-7-azapentacyclo[10.8.0.0^{2,9}.0^{5,9}.0^{13,18}]icos-18-en-16-amine] showed a Ki [1] of 0.038 µM and a Ki [2] of 0.302 µM.
